System: RAW264.7
Assay: Inhibition of nitric oxide production in lipopolysaccharide-activated mouse RAW264.7 cells by Griess reaction based method
Assay type: functional, cell-based

## COC(=O)C1=CO[C@@H](O[C@@H]2O[C@H](CO[C@H]3O[C@H](CO)[C@@H](O)[C@H](O)[C@H]3O)[C@@H](O)[C@H](O)[C@H]2O)[C@@H]2C(CO)=CC[C@H]12
  IC50: > 100 µM

## CC(/C=C/C=C(\C)C(=O)O[C@@H]1O[C@H](CO)[C@@H](O)[C@H](O)[C@H]1O)=C\C=C\C=C(C)\C=C\C=C(/C)C(=O)O[C@@H]1O[C@H](CO[C@@H]2O[C@H](CO)[C@@H](O)[C@H](O)[C@H]2O)[C@@H](O)[C@H](O)[C@H]1O
  IC50: > 100 µM

## COC(=O)C1=CO[C@@H](O[C@@H]2O[C@H](CO[C@@H]3O[C@H](COC(=O)/C=C/c4ccc(O)c(O)c4)[C@@H](O)[C@H](O)[C@H]3O)[C@@H](O)[C@H](O)[C@H]2O)[C@@H]2C(CO)=CC[C@H]12
  IC50: > 100 µM

## COC(=O)C1=CO[C@@H](O[C@@H]2O[C@H](CO[C@@H]3OC[C@](O)(CO)[C@H]3O)[C@@H](O)[C@H](O)[C@H]2O)[C@@H]2C(CO)=CC[C@H]12
  IC50: > 100 µM

## COC(=O)C1=CO[C@@H](O[C@@H]2O[C@H](CO[C@H]3OC[C@@H](O)[C@H](O)[C@H]3O)[C@@H](O)[C@H](O)[C@H]2O)[C@@H]2C(CO)=CC[C@H]12
  IC50: > 100 µM

## COC(=O)C1=CO[C@@H](O)[C@@H]2C(CO)=C[C@@H](O)[C@H]12
  IC50: 28.7 µM

## COC(=O)C1=CO[C@@H](O[C@@H]2O[C@H](CO[C@@H]3O[C@@H](C)[C@H](O)[C@@H](O)[C@H]3O)[C@@H](O)[C@H](O)[C@H]2O)[C@@H]2C(CO)=CC[C@H]12
  IC50: > 100 µM

## COC(=O)C1=CO[C@@H](O[C@@H]2O[C@H](CO)[C@@H](O)[C@H](O)[C@H]2O)[C@@H]2C(CO)=C[C@@H](O)[C@H]12
  IC50: > 100 µM

## CC(/C=C/C=C(\C)C(=O)O[C@@H]1O[C@H](CO[C@@H]2O[C@H](CO)[C@@H](O)[C@H](O)[C@H]2O)[C@@H](O)[C@H](O)[C@H]1O)=C\C=C\C=C(C)\C=C\C=C(/C)C(=O)O[C@@H]1O[C@H](CO[C@@H]2O[C@H](CO)[C@@H](O)[C@H](O)[C@H]2O)[C@@H](O)[C@H](O)[C@H]1O [CROCIN]
  IC50: > 100 µM

## COC(=O)C1=CO[C@@H](O[C@@H]2O[C@H](CO)[C@@H](O[C@@H]3O[C@H](CO)[C@@H](O)[C@H](O)[C@H]3O)[C@H](O)[C@H]2O)[C@@H]2C(CO)=CC[C@H]12 [GENAMESIDE C]
  IC50: > 100 µM

## COC(=O)C1=CO[C@@H](O[C@@H]2O[C@H](CO)[C@@H](O)[C@H](O)[C@H]2O)[C@@H]2C(CO[C@@H]3O[C@H](CO)[C@@H](O)[C@H](O)[C@H]3O)=CC[C@H]12 [GENAMESIDE D]
  IC50: > 100 µM

## COC(=O)C1=CO[C@@H](O[C@@H]2O[C@H](CO[C@@H]3O[C@H](CO)[C@@H](O)[C@H](O)[C@H]3O)[C@@H](O)[C@H](O)[C@H]2O)[C@@H]2C(CO)=CC[C@H]12 [GENIPIN GENTIOBIOSIDE]
  IC50: > 100 µM

## COC(=O)C1=CO[C@@H](O)[C@@H]2C(CO)=CC[C@H]12 [GENIPIN]
  IC50: 11.1 µM

## COC(=O)C1=CO[C@@H](O[C@@H]2O[C@H](CO)[C@@H](O)[C@H](O)[C@H]2O)[C@@H]2C(CO)=CC[C@H]12 [GENIPOSIDE]
  IC50: > 100 µM

## CC1=C(C(=O)O[C@@H]2O[C@H](CO[C@@H]3O[C@H](CO)[C@@H](O)[C@H](O)[C@H]3O)[C@@H](O)[C@H](O)[C@H]2O)C(C)(C)CC=C1 [JASMINOSIDE R]
  IC50: > 100 µM

## CC1=C(C(=O)O[C@@H]2O[C@H](CO[C@@H]3O[C@H](CO)[C@@H](O)[C@H](O)[C@H]3O)[C@@H](O)[C@H](O)[C@H]2O)C(C)(C)CCC1 [JASMINOSIDE S]
  IC50: > 100 µM

## CC1=CC(=O)CC(C)(C)[C@H]1CO[C@@H]1O[C@H](CO[C@@H]2OC[C@](O)(CO)[C@H]2O)[C@@H](O)[C@H](O)[C@H]1O [JASMINOSIDE T]
  IC50: > 100 µM

## CC(/C=C/C=C(\C)C(=O)O)=C\C=C\C=C(C)\C=C\C=C(/C)C(=O)O [TRANSCROCETIN]
  IC50: 5.99 µM

From ChEMBL document CHEMBL2311340, “Chemical constituents from the fruit of Gardenia jasminoides and their inhibitory effects on nitric oxide production” (Bioorg Med Chem Lett, 2013)
